The target in test [1] is recombinant thioredoxin reductase 1 (TrxR1) (Homo sapiens (Human), UniProt Q16881). Kind of test: Inhibition of recombinant TrxR1 (DTNB assay). The format is biochemical. The conditions noted are these: 30 nM TrxR1, 250 μM NADPH, 15 minutes incubation, O.D. 412 nm, read-out: TrxR inhibition (IC50). As to the method: (§1) Small molecule inhibition of recombinant thioredoxin reductase 1 (TrxR1) and gluthathione reductase (GR) was examined in 96-well plate format. 30 nM TrxR1 was incubated in the presence of 250 μM NADPH, 0.1 mg/ml BSA, and various concentrations of compound (1% DMSO final) in 50 mM Tris (pH 7.5) and 2 mM EDTA buffer for 15 minutes. Following the incubation period, 2 mM DTNB was added to each well and the change in O.D. at 412 nm was followed. Percent activity was determined using DMSO vehicle and no TrxR1 (blank) controls. 2 nM GR was incubated in the presence of 250 μM NADPH, 0.1 mg/ml BSA, and various concentrations of compounds (1% DMSO final) in 50 mM Tris (pH 7.5) and 2 mM EDTA buffer for 15 minutes. Following the incubation period, 1 mM GSSG was added to each well and the change in O.D. at 340 nm was followed. Percent activity was determined using DMSO vehicle and no GR (blank) controls.

For test [2], the target named is recombinant gluthathione reductase (GR) (Homo sapiens (Human), UniProt P00390). The test is described as follows: Inhibition of recombinant GR (GSSG assay). The format is biochemical. The conditions noted are these: 2 nM GR, 250 μM NADPH, 15 minutes incubation, O.D. 340 nm. On the procedure: as §1
In another test the test system is MDA-MB-231 cells. The test is described as follows: Breast cancer cell viability assay (Alamar Blue). It is filed as cell-based. The settings on record: Homo sapiens, 72 hrs, 10% FBS media containing 25 nM selenite, 2000 cells/well. As to the method: MDA-MB-231 cells were plated 2000 cells/well in 96-well black optical plates in the presence of 10% FBS media containing 25 nM selenite. The following day cells were treated with various concentrations of compounds (0.1% DMSO final) and incubated for 72 hrs. After the incubation Alamar Blue reagent was added to each well and incubated for additional 3 hrs. Fluorescence was read ex:530 nm/em:590 nm, and percent of viability was determined using DMSO vehicle and no cell (blank) controls.

The subject of another test is U-87 MG. Kind of test: Cancer cell viability assay (MTT), U-87 MG. It is filed as cell-based. The conditions noted are these: Homo sapiens, 72 hrs, 4000 cells/well, 10% FBS media. As to the method:
(§2) Breast cancer and glioblastoma cell lines were plated 4000 cells/well in 96-well plates in the presence of 10% FBS media. The following day cells were treated with various concentrations of the compound of Example 1 (0.1% DMSO final) and incubated for 72 hrs. After the incubation An MTT assay was performed to access cell viability. Percent of viability was determined using DMSO vehicle and no cell (blank) controls.

For another test, the system named is MDA-MB-231. The test is described as follows: Cancer cell viability assay (MTT), MDA-MB-231. The settings on record: Homo sapiens, 72 hrs, 4000 cells/well, 10% FBS media. It is filed as cell-based. As to the method: as §2
In a further test the test system is MDA-MB-468. The test is described as follows: Cancer cell viability assay (MTT), MDA-MB-468. The format is cell-based. The conditions noted are these: Homo sapiens, 72 hrs, 4000 cells/well, 10% FBS media. As to the method:
as §2

Molecules are shown by their SMILES.

recombinant thioredoxin reductase 1 (TrxR1), sequence (Q16881 151-649): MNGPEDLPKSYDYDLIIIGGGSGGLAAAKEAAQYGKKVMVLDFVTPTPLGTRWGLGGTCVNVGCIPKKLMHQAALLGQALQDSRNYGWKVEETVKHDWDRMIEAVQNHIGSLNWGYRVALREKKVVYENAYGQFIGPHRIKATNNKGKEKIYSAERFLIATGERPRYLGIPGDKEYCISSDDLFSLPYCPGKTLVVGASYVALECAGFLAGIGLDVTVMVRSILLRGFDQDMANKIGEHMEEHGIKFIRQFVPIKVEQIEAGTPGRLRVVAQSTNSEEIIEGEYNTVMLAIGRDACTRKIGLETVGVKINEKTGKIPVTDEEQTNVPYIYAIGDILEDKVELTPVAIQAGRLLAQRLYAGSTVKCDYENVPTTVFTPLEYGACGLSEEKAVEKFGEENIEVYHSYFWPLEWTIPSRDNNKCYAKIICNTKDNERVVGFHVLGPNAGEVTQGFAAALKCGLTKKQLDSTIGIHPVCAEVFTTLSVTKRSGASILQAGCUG
recombinant gluthathione reductase (GR), sequence (P00390 44-522): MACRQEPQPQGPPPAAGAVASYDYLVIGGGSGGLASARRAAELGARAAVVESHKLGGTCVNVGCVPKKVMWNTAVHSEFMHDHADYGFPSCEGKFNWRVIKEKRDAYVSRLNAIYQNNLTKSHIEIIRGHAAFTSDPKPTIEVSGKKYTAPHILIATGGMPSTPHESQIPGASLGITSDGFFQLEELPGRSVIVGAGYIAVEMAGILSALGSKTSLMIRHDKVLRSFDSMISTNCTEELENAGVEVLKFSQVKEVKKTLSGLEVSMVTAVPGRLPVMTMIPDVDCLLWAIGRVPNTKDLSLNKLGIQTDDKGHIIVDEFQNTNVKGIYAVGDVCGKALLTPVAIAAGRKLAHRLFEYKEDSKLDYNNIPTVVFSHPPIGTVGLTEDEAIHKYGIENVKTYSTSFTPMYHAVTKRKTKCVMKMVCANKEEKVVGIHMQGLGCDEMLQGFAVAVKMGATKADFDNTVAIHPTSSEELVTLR

As to `COc1ccc([N+](=O)[O-])c([S+]([O-])c2ccc(Cl)cc2)n1` (stereo not drawn) [Example 1, 2-((4-Chlorophenyl)sulfinyl)-6-methoxy-3-nitropyridine], the IC50 in test [1] is 0.00316 µM; in test [2] it was 41.3 µM; with MDA-MB-231 cells, 2.99 µM; in the test on U-87 MG, 6.76 µM; in the test with MDA-MB-231, 5.26 µM; with MDA-MB-468, 3.86 µM.

(Values after patent US11208384B2, “Sulfinylpyridines and their use in the treatment of cancer” (Oblique Therapeutics AB, priority 2017, dated 2021).)
